How the values were obtained:
[1] = tested on: MDA-MB-231; assay: Antiproliferative activity against human MDA-MB-231 cells assessed as reduction in cell proliferation incubated for 72 hrs by CellTiter-Glo reagent based assay; assay type: functional; details: MDA-MB-231, 72 h
[2] = Apparent permeability from apical to basolateral side in human Caco2 cells at 10 uM by LC/MS/MS analysis
[3] = Efflux ratio in human Caco2 cells at 10 uM by LC/MS/MS analysis
[4] = Stability in rat liver microsomes assessed as parent compound remaining at 1 uM pre-incubated for 10 mins before NADPH addition and measured after 30 mins by LC/MS/MS analysis; assay type: ADME, Microsome; details: read-out: Stability
[5] = Stability in human liver microsomes assessed as parent compound remaining at 1 uM pre-incubated for 10 mins before NADPH addition and measured after 30 mins by LC/MS/MS analysis; assay type: ADME, Microsome; details: read-out: Stability
[6] = target: hERG (KCNH2) (Homo sapiens, UniProt Q12809); assay: Inhibition of human ERG at 10 uM by patch-clamp assay relative to control
Sequence of hERG (KCNH2) (Q12809 whole entry): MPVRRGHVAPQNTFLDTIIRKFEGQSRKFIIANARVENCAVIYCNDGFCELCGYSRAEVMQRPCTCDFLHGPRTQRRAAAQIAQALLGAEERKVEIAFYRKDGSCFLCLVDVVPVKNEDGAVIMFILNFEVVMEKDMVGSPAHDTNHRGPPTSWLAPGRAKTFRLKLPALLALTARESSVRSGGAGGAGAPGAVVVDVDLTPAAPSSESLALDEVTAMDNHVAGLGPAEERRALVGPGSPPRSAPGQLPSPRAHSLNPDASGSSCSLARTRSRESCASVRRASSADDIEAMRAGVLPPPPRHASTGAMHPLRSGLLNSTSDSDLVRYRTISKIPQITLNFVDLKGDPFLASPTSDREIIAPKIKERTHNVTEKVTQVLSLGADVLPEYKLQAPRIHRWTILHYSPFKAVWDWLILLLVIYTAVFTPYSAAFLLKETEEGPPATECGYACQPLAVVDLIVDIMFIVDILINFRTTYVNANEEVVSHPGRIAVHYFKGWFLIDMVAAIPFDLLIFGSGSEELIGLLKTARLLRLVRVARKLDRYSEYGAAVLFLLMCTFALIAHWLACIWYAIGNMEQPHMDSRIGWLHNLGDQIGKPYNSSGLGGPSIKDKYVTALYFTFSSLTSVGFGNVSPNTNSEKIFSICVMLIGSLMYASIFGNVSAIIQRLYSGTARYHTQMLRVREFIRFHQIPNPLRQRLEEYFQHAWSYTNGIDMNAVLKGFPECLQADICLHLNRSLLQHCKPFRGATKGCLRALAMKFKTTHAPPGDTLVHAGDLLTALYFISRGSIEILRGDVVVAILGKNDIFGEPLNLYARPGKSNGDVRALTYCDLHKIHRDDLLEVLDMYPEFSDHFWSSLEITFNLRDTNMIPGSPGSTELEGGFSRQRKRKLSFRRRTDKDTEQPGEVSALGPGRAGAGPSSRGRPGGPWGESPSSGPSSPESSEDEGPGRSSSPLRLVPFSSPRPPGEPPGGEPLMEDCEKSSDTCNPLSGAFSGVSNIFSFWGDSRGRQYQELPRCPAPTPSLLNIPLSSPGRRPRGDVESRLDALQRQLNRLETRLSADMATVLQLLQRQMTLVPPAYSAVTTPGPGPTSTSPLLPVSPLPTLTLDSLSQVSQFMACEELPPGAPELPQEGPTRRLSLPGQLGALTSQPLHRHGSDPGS

Structure (SMILES): Cc1ccc([C@@]23Oc4cc(Cl)cnc4[C@]2(O)[C@H](O)[C@H](C(=O)N(C)C)[C@H]3c2ccccc2)cc1
- IC50 [1]: 143 nM

Structure (SMILES): COc1ccc2c(n1)O[C@@]1(c3ccc(C#N)cc3)[C@H](c3ccccc3)[C@@H](C(=O)N(C)C)[C@@H](O)[C@@]21O (racemic)
- IC50 [1]: > 1000 nM

Structure (SMILES): CS(=O)(=O)[C@H]1[C@@H](O)[C@@]2(O)c3ncc(Cl)cc3O[C@@]2(c2ccc(C#N)cc2)[C@@H]1c1ccccc1
- IC50 [1]: 3020 nM

Structure (SMILES): CN(C)C(=O)[C@H]1[C@@H](O)[C@@]2(O)c3ncc(Cl)cc3O[C@@]2(c2ccc(C#N)cc2)[C@@H]1c1ccccc1
- Papp A→B at 10 µM ([2]; Caco-2): 1.8 ×10⁻⁶ cm/s
- IC50 [1]: 87 nM

Structure (SMILES): COc1cncc2c1[C@]1(O)[C@H](O)[C@H](CN(C)CC(F)F)[C@@H](c3ccccc3)[C@]1(c1ccc(C#N)cc1)O2
- efflux ratio at 10 µM ([3]; Caco-2): 3.2
- remaining at 0.5 h, 1 µM [4]: < 1%
- remaining at 0.5 h, 1 µM [5]: 1%
- inhibition at 10 µM [6]: 11%
- Papp A→B at 10 µM ([2]; Caco-2): 2.6 ×10⁻⁶ cm/s
- IC50 [1]: 250 nM

Structure (SMILES): CNS(=O)(=O)[C@H]1[C@@H](O)[C@@]2(O)c3ncc(Cl)cc3O[C@@]2(c2ccc(C#N)cc2)[C@@H]1c1ccccc1 (racemic)
- IC50 [1]: 2040 nM

Structure (SMILES): COc1cncc2c1[C@]1(O)[C@H](O)[C@H](CCN(C)C)[C@@H](c3ccccc3)[C@]1(c1ccc(C#N)cc1)O2 (racemic)
- efflux ratio at 10 µM ([3]; Caco-2): 27
- remaining at 0.5 h, 1 µM [4]: 77%
- remaining at 0.5 h, 1 µM [5]: 75%
- inhibition at 10 µM [6]: 11%
- Papp A→B at 10 µM ([2]; Caco-2): 0.1 ×10⁻⁶ cm/s
- IC50 [1]: 143 nM

Structure (SMILES): N#Cc1ccc([C@@]23Oc4cc(Cl)cnc4[C@]2(O)[C@H](O)[C@H](C(N)=O)[C@H]3c2ccccc2)cc1
- Papp A→B at 10 µM ([2]; Caco-2): 0.5 ×10⁻⁶ cm/s
- IC50 [1]: 90 nM

Structure (SMILES): CNC[C@H]1[C@@H](O)[C@@]2(O)c3c(OC)cncc3O[C@@]2(c2ccc(C#N)cc2)[C@@H]1c1ccccc1 (racemic)
- efflux ratio at 10 µM ([3]; Caco-2, Ratio): 3.9
- remaining at 0.5 h, 1 µM [4]: 90%
- remaining at 0.5 h, 1 µM [5]: 98%
- inhibition at 10 µM [6]: < 10%
- Papp A→B at 10 µM ([2]; Caco-2, Papp): 0.3 ×10⁻⁶ cm/s
- IC50 [1]: 482 nM

Structure (SMILES): COc1cncc2c1[C@]1(O)[C@H](O)[C@H](CN3CC(F)(F)C3)[C@@H](c3ccccc3)[C@]1(c1ccc(C#N)cc1)O2
- efflux ratio at 10 µM ([3]; Caco-2): 5.7
- inhibition at 10 µM [6]: < 10%
- Papp A→B at 10 µM ([2]; Caco-2): 1.9 ×10⁻⁶ cm/s
- IC50 [1]: 208 nM

Structure (SMILES): N#Cc1ccc([C@@]23Oc4cc(Cl)cnc4[C@]2(O)[C@H](O)[C@H](CO)[C@H]3c2ccccc2)cc1 (racemic)
- IC50 [1]: 1460 nM

Structure (SMILES): COc1nccc2c1[C@]1(O)[C@H](O)[C@H](C(=O)N(C)C)[C@@H](c3ccccc3)[C@]1(c1ccc(C#N)cc1)O2 (racemic)
- IC50 [1]: 314 nM

Structure (SMILES): COc1cncc2c1[C@]1(O)[C@H](O)[C@H](CN3CCOCC3)[C@@H](c3ccccc3)[C@]1(c1ccc(C#N)cc1)O2
- efflux ratio at 10 µM ([3]; Caco-2, Ratio): 5.3
- remaining at 0.5 h, 1 µM [4]: 52%
- remaining at 0.5 h, 1 µM [5]: 40%
- inhibition at 10 µM [6]: < 10%
- Papp A→B at 10 µM ([2]; Caco-2, Papp): 1.5 ×10⁻⁶ cm/s
- IC50 [1]: 121 nM

Structure (SMILES): COc1cncc2c1[C@]1(O)[C@H](O)[C@H](CN3[C@@H]4CC[C@H]3COC4)[C@@H](c3ccccc3)[C@]1(c1ccc(C#N)cc1)O2
- efflux ratio at 10 µM ([3]; Caco-2): 5.3
- remaining at 0.5 h, 1 µM [4]: 51%
- remaining at 0.5 h, 1 µM [5]: 51%
- Papp A→B at 10 µM ([2]; Caco-2): 1.9 ×10⁻⁶ cm/s
- IC50 [1]: 101 nM

Structure (SMILES): N#Cc1ccc([C@@]23Oc4cc(Cl)cnc4[C@]2(O)[C@H](O)C[C@H]3c2ccccc2)cc1 (racemic)
- IC50 [1]: 670 nM

Structure (SMILES): CN(C)C[C@H]1[C@@H](O)[C@@]2(O)c3ncc(Cl)cc3O[C@@]2(c2ccc(C#N)cc2)[C@@H]1c1ccccc1
- IC50 [1]: 239 nM

Structure (SMILES): COc1ccc([C@@]23Oc4cc(OC)cnc4[C@]2(O)[C@H](O)[C@H](C(=O)N(C)C)[C@H]3c2ccccc2)cc1 (racemic)
- IC50 [1]: 990 nM

Structure (SMILES): CN(C)C(=O)[C@H]1[C@@H](O)[C@@]2(O)c3ncc(Cl)cc3O[C@@]2(c2ccc(C(F)F)cc2)[C@@H]1c1ccccc1
- IC50 [1]: 241 nM

Structure (SMILES): COc1ccc([C@@]23Oc4cc(Cl)cnc4[C@]2(O)[C@H](O)[C@H](C(=O)N(C)C)[C@H]3c2ccccc2)cc1
- IC50 [1]: 283 nM

Structure (SMILES): COc1ccc2c(c1)O[C@@]1(c3ccc(C#N)cc3)[C@H](c3ccccc3)[C@@H](C(=O)N(C)C)[C@@H](O)[C@@]21O (racemic)
- IC50 [1]: 68 nM

Structure (SMILES): COc1ccc([C@@]23Oc4cc(C#N)ccc4[C@]2(O)[C@H](O)[C@H](C(=O)N(C)C)[C@H]3c2ccccc2)cc1 (racemic)
- IC50 [1]: 38 nM

Structure (SMILES): CN(C)C(=O)[C@H]1[C@@H](O)[C@@]2(O)c3ccc(Cl)cc3O[C@@]2(c2ccc(C#N)cc2)[C@@H]1c1ccccc1 (racemic)
- IC50 [1]: 19 nM

Structure (SMILES): N#Cc1ccc([C@@]23Oc4cc(Cl)cnc4[C@]2(O)[C@H](O)[C@H](c2ncco2)[C@H]3c2ccccc2)cc1 (racemic)
- IC50 [1]: 236 nM

Structure (SMILES): CN(C)C(=O)[C@H]1[C@@H](O)[C@@]2(O)c3ncc(Cl)cc3O[C@@]2(c2ccc(Cl)cc2)[C@@H]1c1ccccc1
- IC50 [1]: 160 nM

Structure (SMILES): CN(C)C(=O)[C@H]1[C@@H](O)[C@@]2(O)c3cnc(C#N)cc3O[C@@]2(c2ccc(C#N)cc2)[C@@H]1c1ccccc1
- IC50 [1]: 308 nM

Structure (SMILES): CN(C)C(=O)[C@H]1[C@@H](O)[C@@]2(O)c3ccc(C#N)cc3O[C@@]2(c2ccc(C#N)cc2)[C@@H]1c1ccccc1 (racemic)
- IC50 [1]: 26 nM

Structure (SMILES): COc1cncc2c1[C@]1(O)[C@H](O)[C@H](CNC(C)(C)C)[C@@H](c3ccccc3)[C@]1(c1ccc(C#N)cc1)O2
- remaining at 0.5 h, 1 µM [4]: 92%
- remaining at 0.5 h, 1 µM [5]: 99%
- inhibition at 10 µM [6]: < 10%
- IC50 [1]: 301 nM

Structure (SMILES): COc1ccc([C@@]23Oc4cc(OC)cc(OC)c4[C@]2(O)[C@H](O)[C@H](C(=O)N(C)C)[C@H]3c2ccccc2)cc1 [ROCAGLAMIDE]
- IC50 [1]: 20 nM

Structure (SMILES): COc1ccc([C@@]23Oc4cc(C#N)cnc4[C@]2(O)[C@H](O)[C@H](C(=O)N(C)C)[C@H]3c2ccccc2)cc1
- IC50 [1]: 601 nM

Structure (SMILES): CN(C)C(=O)[C@H]1[C@@H](O)[C@@]2(O)c3ncc(C#N)cc3O[C@@]2(c2ccc(C#N)cc2)[C@@H]1c1ccccc1
- IC50 [1]: 385 nM

Structure (SMILES): COc1cncc2c1[C@]1(O)[C@H](O)[C@H](CN(C)CC(F)(F)F)[C@@H](c3ccccc3)[C@]1(c1ccc(C#N)cc1)O2
- efflux ratio at 10 µM ([3]; Caco-2): 1.3
- remaining at 0.5 h, 1 µM [4]: < 1%
- remaining at 0.5 h, 1 µM [5]: < 1%
- Papp A→B at 10 µM ([2]; Caco-2): 7.1 ×10⁻⁶ cm/s
- IC50 [1]: 196 nM

Structure (SMILES): COc1cncc2c1[C@]1(O)[C@H](O)[C@H](CN3CCCCC3)[C@@H](c3ccccc3)[C@]1(c1ccc(C#N)cc1)O2
- remaining at 0.5 h, 1 µM [4]: 56%
- remaining at 0.5 h, 1 µM [5]: 81%
- IC50 [1]: 50 nM

Structure (SMILES): COc1ccc([C@@]23Oc4cc(Cl)ccc4[C@]2(O)[C@H](O)[C@H](C(=O)N(C)C)[C@H]3c2ccccc2)cc1 (racemic)
- IC50 [1]: 52 nM

Structure (SMILES): CN(C)C(=O)[C@H]1[C@@H](O)[C@@]2(O)c3ncc(Cl)cc3O[C@@]2(c2ccc(OC(F)(F)F)cc2)[C@@H]1c1ccccc1
- IC50 [1]: 603 nM

Structure (SMILES): COc1ccc([C@@]23Oc4cc(OC)ccc4[C@]2(O)[C@H](O)[C@H](C(=O)N(C)C)[C@H]3c2ccccc2)cc1 (racemic)
- IC50 [1]: 198 nM

Structure (SMILES): CNC(=O)[C@H]1[C@@H](O)[C@@]2(O)c3ncc(Cl)cc3O[C@@]2(c2ccc(C#N)cc2)[C@@H]1c1ccccc1
- Papp A→B at 10 µM ([2]; Caco-2, Papp): 0.5 ×10⁻⁶ cm/s
- IC50 [1]: 32 nM

Structure (SMILES): CN(C)C(=O)[C@H]1[C@@H](O)[C@@]2(O)c3ncc(Cl)cc3O[C@@]2(c2ccc(S(C)(=O)=O)cc2)[C@@H]1c1ccccc1
- IC50 [1]: > 1000 nM

Structure (SMILES): COc1cncc2c1[C@]1(O)[C@H](O)[C@H](CN3CC4(COC4)C3)[C@@H](c3ccccc3)[C@]1(c1ccc(C#N)cc1)O2
- efflux ratio at 10 µM ([3]; Caco-2): 41
- remaining at 0.5 h, 1 µM [4]: 74%
- remaining at 0.5 h, 1 µM [5]: 81%
- Papp A→B at 10 µM ([2]; Caco-2): 0.1 ×10⁻⁶ cm/s
- IC50 [1]: 124 nM

Structure (SMILES): CN(C)S(=O)(=O)[C@H]1[C@@H](O)[C@@]2(O)c3ncc(Cl)cc3O[C@@]2(c2ccc(C#N)cc2)[C@@H]1c1ccccc1 (racemic)
- IC50 [1]: 304 nM

Structure (SMILES): COc1cnc2c(c1)O[C@@]1(c3ccc(C#N)cc3)[C@H](c3ccccc3)[C@@H](C(=O)N(C)C)[C@@H](O)[C@@]21O
- IC50 [1]: 159 nM

Structure (SMILES): CN(C)C(=O)[C@H]1[C@@H](O)[C@@]2(O)c3ncc(Cl)cc3O[C@@]2(c2ccc(F)cc2)[C@@H]1c1ccccc1
- IC50 [1]: > 1000 nM

Structure (SMILES): COc1cncc2c1[C@]1(O)[C@H](O)[C@H](CN3[C@@H]4CCC[C@H]3CC4)[C@@H](c3ccccc3)[C@]1(c1ccc(C#N)cc1)O2
- efflux ratio at 10 µM ([3]; Caco-2): 35
- remaining at 0.5 h, 1 µM [4]: 68%
- remaining at 0.5 h, 1 µM [5]: 62%
- Papp A→B at 10 µM ([2]; Caco-2): 0.5 ×10⁻⁶ cm/s
- IC50 [1]: 143 nM

Structure (SMILES): COc1cncc2c1[C@]1(O)[C@H](O)[C@H](CN(C)C)[C@@H](c3ccccc3)[C@]1(c1ccc(C#N)cc1)O2 (stereo in doubt; (+)-37)
- Ratio ([3]; caco-2, 10 µM, 10 µM): 23
- remaining at 0.5 h, 1 µM [4]: 72%
- remaining at 0.5 h, 1 µM [5]: 75%
- inhibition at 10 µM [6]: 11%
- Papp ([2]; caco-2, 10 µM, 10 µM): 0.2 ×10⁻⁶ cm/s

Structure (SMILES): CN(C)C(=O)[C@H]1[C@@H](O)[C@@]2(O)c3ncc(Cl)cc3O[C@@]2(c2ccc(C(F)(F)F)cc2)[C@@H]1c1ccccc1
- IC50 [1]: 320 nM
